How the values were obtained:
[1] = tested on: bleomycin induced lung fibrosis; assay: bleomycin-induced established lung fibrosis in mice: fibrosis and Masson's Trichrome histology; type: in vivo, mice (C57/BL6); conditions: for collagen deposition in the interstitium, peribronchiolar, or perivascular space (Masson's Trichrome staining): days 10-18 after bleomycin, day 21 lung sections; for established fibrosis in bleomycin induced lung fibrosis: days 10-18 after intratracheal bleomycin 1.5 U/kg, sacrifice day 21
Description: (§1) C57B1/6, 9-12 weeks-old, female mice were purchased from Taconic Lab. Mice were anesthetized by placing them in a chamber having paper towels soaked with 40% isoflurane solution. 1.5 U/kg of bleomycin (Hospira, Ill.) or equivalent volume (50 μl) of 0.9% normal saline was administered intratracheally. To test therapeutic efficacy in bleomycin-induced established fibrosis intraperitoneal thyroid hormone receptor beta agonist (GC-1, 30 μg/kg) was administered at days 10, 12, 14, 16 and 18 following bleomycin-administration and mice were sacrificed at day 21. The lungs were harvested for fibrotic assays
Hydroxyproline: Lung hydroxyproline was analyzed with hydroxyproline colorimetric assay kit from Biovision (Milpitas, Calif.) following manufacturer's instruction.
Histology: Tissue sections (4 μm) were stained with Masson Trichrome (collagen/connective tissue), two slices per animal, and two animals per group.
FIG. 1 illustrates an experiment where mice with bleomycin-induced fibrosis were treated with GC-1 intraperitoneally. On Day 0, bleomycin was delivered intratracheally to the mice (1.5 U/kg). On days 10-18, the mice were administered 30 μg/kg of GC-1 (200 μl) or equivalent volume of vehicle (normal saline 0.9%).
9-12 weeks-old, C57/BL6 female mice were treated every other day intraperitoneally with thyroid hormone agonist GC-1 (30 μg/kg) or equivalent volume of empty vehicle (200 μl of normal saline 0.9%) at days 10-18, following intratracheal challenge with bleomycin (1.5 U/kg) or normal saline 0.9%. Mice were sacrificed at day 21. […] Data are expressed as mean hydroxyproline content per lung set (μg/gr lung)+SEM, n=8 mice/group, *p<0.05. FIGS. 2A-2D illustrate quantitative RT-PCR analysis of Col1a1, Col3a1, and FSP1 relative expression in the bleomycin model of lung fibrosis. Bars (means±SEM) are shown for the relative changes (fold) by setting the indicated control level to 1.0, *p<0.05. […]
9-12 weeks-old, C57/BL6 female mice were treated every other day orally by gavage with thyroid hormone receptor agonist GC-1 (5 mg/kg) or equivalent volume of empty vehicle (200 μl of normal saline 0.9%) at days 10-18 following intratracheal challenge with bleomycin (1.5 U/kg) or normal saline 0.9%. […] FIG. 5A: Hydroxyproline level in mice was assessed. Data are expressed as mean hydroxyproline content per lung set (μg/gr lung)+SEM, n=8 mice/group, *p<0.05. FIGS. 5B-5F illustrate quantitative RT-PCR analysis of Col1a1 (collagen, type I, alpha 1), Col3a1 (collagen, type III, alpha 1), FSP1 (fibroblast-specific protein 1), Acta (alpha-actin-2), and Ppargc1a (peroxisome proliferator-activated receptor gamma coactivator 1-alpha) relative expression in the bleomycin model of lung fibrosis. […]

[2] = tested on: Ppargc1a, Thra and Thrb expression in bleomycin induced mouse lungs; assay: quantitative RT-PCR of relative gene expression in lungs, bleomycin model of lung fibrosis; type: in vivo, mice (C57/BL6); conditions: GC-1 30 μg/kg intraperitoneally every other day, days 10-18 after bleomycin; lungs at day 21; FIGS. 3A-3C
Description: as §1
qRT-PCR assay: Gene expression was determined by TaqMan® (Life Technologies, Thermo Scientific Inc. Rockford Ill., USA) according to manufacturer's instruction. β-glucuronidase (Gusb) was employed as an internal standard control and the specific primers and probes were all obtained from Life Technologies (Thermo Scientific Inc. Rockford Ill., USA). […]
9-12 weeks-old, C57/BL6 female mice were treated every other day intraperitoneally with thyroid hormone receptor beta agonist GC-1 (30 μg/kg) or equivalent volume of empty vehicle (200 μl of normal saline 0.9%) at days 10-18 following intratracheal challenge with bleomycin (1.5 U/kg) or normal saline 0.9%. […] FIGS. 3A-3C illustrate quantitative RT-PCR analysis of Ppargc1a, Thra and Thrb relative expression in the bleomycin model of lung fibrosis. […]

## Cc1cc(OCC(=O)O)cc(C)c1Cc1ccc(O)c(C(C)C)c1 [GC-1, 2-(4-(4-hydroxy-3-isopropylbenzyl)-3,5-dimethylphenoxy)acetic acid]
[1]; GC-1 30 μg/kg intraperitoneally every other day, FIG. 2E
  collagen deposition in the interstitium, peribronchiolar, or perivascular space (Masson's Trichrome staining): significant decrease in collagen deposition
[1]; GC-1 30 μg/kg intraperitoneally every other day, FIGS. 2A-2E
  established fibrosis in bleomycin induced lung fibrosis: blunt established fibrosis
[1]; GC-1 5 mg/kg orally by gavage every other day
  collagen deposition in the interstitium, peribronchiolar, or perivascular space (Masson's Trichrome staining): significant decrease in collagen deposition
[1]; GC-1 5 mg/kg orally by gavage every other day, FIGS. 5A-5G
  established fibrosis in bleomycin induced lung fibrosis: blunt established fibrosis
[2]
  Ppargc1a relative expression (qRT-PCR): regulates expression
